The values that follow are results of earlier work, collected in US6358940B1, “Modified 2-Alkoxyestradiol derivatives with prolonged pharmacological activity” (priority 1999, dated 2002).

One data set relates to tubulin polymerization. Conditions: antitubulin activity and cytotoxicity.
The test system of data set [1] is human non-small cell lung cancer line.
For another data set, the system named is neovascularization. The following applies: in vivo.

On to `CC=Cc1cc2c(cc1O)CCC1C2CCC2(C)C(O)CCC12` (stereo not drawn) [2-((E)-l-propenyl)-estradiol], for which the “potency relative to 2-methoxyestradiol” value in the data set with tubulin polymerization is reported as “substantially more potent than 2-methoxyestradiol”.
In the case of `CCOc1cc2c(cc1O)CC[C@@H]1[C@@H]2CC[C@]2(C)[C@@H](O)CC[C@@H]12` [2-Ethoxyestradiol], the “potency relative to 2-methoxyestradiol” value in the data set with tubulin polymerization is listed as “substantially more potent than 2-methoxyestradiol”.
Turning to `COc1cc2c(cc1O)CC[C@@H]1[C@@H]2CC[C@]2(C)[C@@H](O)CC[C@@H]12` [2-methoxyestradiol], in the data set on angiogenesis, the “inhibitory effect on angiogenesis” value was “strong inhibitory effect on angiogenesis”. The cytotoxicity entry with cancer cell cultures was “cytotoxic”. For the same compound, the apoptotic cell death entry in data set [1] (after drug treatment) was “Significant apoptotic cell death”. Moreover, in data set [1] (human non-small cell lung cancer line, with accumulation of p21WAF1/CIP1), the “wild-type p53 levels” value is “increases wild-type p53 levels”. For the same compound, the inhibition of neovascularization entry in the data set on neovascularization (mice) is “potent inhibitor of neovascularization”. In the data set on neovascularization (mouse), the signs of toxicity entry is reported as “No signs of toxicity”.
